Experimental data published in US10925856B2, “Methods and compositions involving bucindolol for the treatment of atrial fibrillation” (priority 2018, dated 2021).

System: plasma norepinephrine
Assay: Plasma norepinephrine (HPLC with electrochemical detection)
Conditions: for Norepinephrine, ΔWeek 12 Mean ± SEM / Norepinephrine, ΔWeek 12 Median / Norepinephrine, ΔWeek 24 Mean ± SEM / Norepinephrine, ΔWeek 24 Median: change from baseline
[1] = Europe excluding Hungary (n = 48)

Question: With COCCc1ccc(OCC(O)CNC(C)C)cc1 (centres unmarked) [metoprolol, metoprolol succinate, reference compound] as the compound, how does the “Plasma norepinephrine, change from baseline to Week 4, Mean ±SEM” value (“Plasma norepinephrine, change … Mean ±SEM” for short) (Canada) read?
Answer: The value was -97 pg/mL.

Question: What about the “Plasma norepinephrine, change from baseline to Week 4, Median” value (“Plasma norepinephrine, change … Median” below) (Canada) of the same compound?
Answer: The value was -59 pg/mL.

Question: What about the “Norepinephrine, Baseline Mean ± SD” value (Canada (n = 59)) of the same compound?
Answer: Its value is 674 ± 429 pg/mL.

Question: And the “Norepinephrine, Baseline Median” value (Canada (n = 59))?
Answer: Its value is 541 pg/mL.

Question: What about the “Norepinephrine, Week 12 Mean ± SD” value (Canada (n = 59)) of the same compound?
Answer: Its value is 577 ± 273 pg/mL.

Question: What about the “Norepinephrine, Week 12 Median” value (Canada (n = 59)) of the same compound?
Answer: Its value is 563 pg/mL.

Question: And the “Norepinephrine, Week 24 Mean ± SD” value (Canada (n = 59))?
Answer: The value was 722 ± 303 pg/mL.

Question: What about the “Norepinephrine, Week 24 Median” value (Canada (n = 59)) of the same compound?
Answer: Its value is 690 pg/mL.

Question: What about the “Change in NE at Week 4, median (Q1, Q3)” value (Entire Cohort) of the same compound?
Answer: Its value is −10 (198,121) pg/ml.

Question: And the “Plasma norepinephrine, Week 4 Mean” value (Entire Cohort)?
Answer: Its value is 617 pg/mL.

Question: What about the “Plasma norepinephrine, Week 4 Median” value (Entire Cohort) of the same compound?
Answer: The value was 570 pg/mL.

Question: What about the “Plasma norepinephrine, change … Mean ±SEM” value (Entire Cohort) of the same compound?
Answer: Its value is 36 ± 32 pg/mL.

Question: And the “Plasma norepinephrine, change … Median” value (Entire Cohort)?
Answer: Its value is -10 pg/mL.

Question: And the “Norepinephrine, Baseline Mean ± SD” value (Entire Cohort (n = 267))?
Answer: Its value is 664 ± 359 pg/mL.

Question: What about the “Norepinephrine, Baseline Median” value (Entire Cohort (n = 267)) of the same compound?
Answer: The value was 590 pg/mL.

Question: And the “Norepinephrine, Week 12 Mean ± SD” value (Entire Cohort (n = 267))?
Answer: Its value is 605 ± 266 pg/mL.

Question: And the “Norepinephrine, Week 12 Median” value (Entire Cohort (n = 267))?
Answer: Its value is 566 pg/mL.

Question: What about the “Norepinephrine, Week 24 Mean ± SD” value (Entire Cohort (n = 267)) of the same compound?
Answer: The value was 690 ± 414 pg/mL.

Question: What about the “Norepinephrine, Week 24 Median” value (Entire Cohort (n = 267)) of the same compound?
Answer: Its value is 586 pg/mL.

Question: And the “Plasma norepinephrine, change … Mean ±SEM” value (Entire Cohort, listed as Met)?
Answer: The value was -36 pg/mL.

Question: And the “Plasma norepinephrine, Week 4 Mean” value (Europe excluding Hungary)?
Answer: Its value is 676 pg/mL.

Question: What about the “Plasma norepinephrine, Week 4 Median” value (Europe excluding Hungary) of the same compound?
Answer: Its value is 612 pg/mL.

Question: What about the “Plasma norepinephrine, change … Mean ±SEM” value (Europe excluding Hungary) of the same compound?
Answer: The value was -18 pg/mL.

Question: What about the “Plasma norepinephrine, change … Median” value (Europe excluding Hungary) of the same compound?
Answer: Its value is -12 pg/mL.

Question: What about the “Norepinephrine, Baseline Mean ± SD” value [1] of the same compound?
Answer: The value was 675 ± 250 pg/mL.

Question: And the “Norepinephrine, Baseline Median” value [1]?
Answer: Its value is 592 pg/mL.

Question: What about the “Norepinephrine, Week 12 Mean ± SD” value [1] of the same compound?
Answer: Its value is 640 ± 283 pg/mL.

Question: And the “Norepinephrine, Week 12 Median” value [1]?
Answer: Its value is 614 pg/mL.

Question: What about the “Norepinephrine, Week 24 Mean ± SD” value [1] of the same compound?
Answer: Its value is 904 ± 348 pg/mL.

Question: And the “Norepinephrine, Week 24 Median” value [1]?
Answer: The value was 924 pg/mL.

Question: What about the “Plasma norepinephrine, Week 4 Mean” value (Hungary) of the same compound?
Answer: Its value is 530 pg/mL.

Question: And the “Plasma norepinephrine, Week 4 Median” value (Hungary)?
Answer: Its value is 460 pg/mL.

Question: And the “Plasma norepinephrine, change … Mean ±SEM” value (Hungary)?
Answer: The value was -35 pg/mL.

Question: What about the “Plasma norepinephrine, change … Median” value (Hungary) of the same compound?
Answer: Its value is -70 pg/mL.

Question: What about the “Norepinephrine, Baseline Mean ± SD” value (Hungary (n = 33)) of the same compound?
Answer: The value was 627 ± 258 pg/mL.

Question: And the “Norepinephrine, Baseline Median” value (Hungary (n = 33))?
Answer: The value was 571 pg/mL.

Question: What about the “Norepinephrine, Week 12 Mean ± SD” value (Hungary (n = 33)) of the same compound?
Answer: The value was 716 ± 308 pg/mL.

Question: And the “Norepinephrine, Week 12 Median” value (Hungary (n = 33))?
Answer: The value was 590 pg/mL.

Question: What about the “Norepinephrine, Week 24 Mean ± SD” value (Hungary (n = 33)) of the same compound?
Answer: Its value is 716 ± 301 pg/mL.

Question: And the “Norepinephrine, Week 24 Median” value (Hungary (n = 33))?
Answer: Its value is 668 pg/mL.

Question: And the “Plasma norepinephrine, Week 4 Mean” value (U.S.)?
Answer: The value was 616 pg/mL.

Question: What about the “Plasma norepinephrine, Week 4 Median” value (U.S.) of the same compound?
Answer: The value was 556 pg/mL.

Question: What about the “Plasma norepinephrine, change … Mean ±SEM” value (U.S.) of the same compound?
Answer: Its value is -18 pg/mL.

Question: And the “Plasma norepinephrine, change … Median” value (U.S.)?
Answer: The value was “+29 pg/ml”.

Question: What about the “Norepinephrine, Baseline Mean ± SD” value (U.S. (n = 127)) of the same compound?
Answer: The value was 664 ± 386 pg/mL.

Question: And the “Norepinephrine, Baseline Median” value (U.S. (n = 127))?
Answer: The value was 599 pg/mL.

Question: And the “Norepinephrine, Week 12 Mean ± SD” value (U.S. (n = 127))?
Answer: The value was 576 ± 246 pg/mL.

Question: What about the “Norepinephrine, Week 12 Median” value (U.S. (n = 127)) of the same compound?
Answer: The value was 560 pg/mL.

Question: And the “Norepinephrine, Week 24 Mean ± SD” value (U.S. (n = 127))?
Answer: The value was 639 ± 472 pg/mL.

Question: What about the “Norepinephrine, Week 24 Median” value (U.S. (n = 127)) of the same compound?
Answer: The value was 519 pg/mL.

Question: And the “Within group NE change” value (Week 4, any of the regions)?
Answer: Its value is “not associated with a within group NE change”.

Question: What about the “Norepinephrine, ΔWeek 12 Mean ± SEM” value (Canada (n = 59)) of the same compound?
Answer: Its value is -111 ± 57 pg/mL.

Question: And the “Norepinephrine, ΔWeek 12 Median” value (Canada (n = 59))?
Answer: Its value is -85 pg/mL.

Question: What about the “Norepinephrine, ΔWeek 24 Mean ± SEM” value (Canada (n = 59)) of the same compound?
Answer: Its value is 18 ± 75 pg/mL.

Question: What about the “Norepinephrine, ΔWeek 24 Median” value (Canada (n = 59)) of the same compound?
Answer: The value was -10 pg/mL.

Question: And the “Norepinephrine, ΔWeek 12 Mean ± SEM” value (Entire Cohort (n = 267))?
Answer: The value was -64 ± 30 pg/mL.

Question: What about the “Norepinephrine, ΔWeek 12 Median” value (Entire Cohort (n = 267)) of the same compound?
Answer: The value was -57 pg/mL.

Question: And the “Norepinephrine, ΔWeek 24 Mean ± SEM” value (Entire Cohort (n = 267))?
Answer: The value was 2 ± 33 pg/mL.

Question: What about the “Norepinephrine, ΔWeek 24 Median” value (Entire Cohort (n = 267)) of the same compound?
Answer: Its value is -24 pg/mL.

Question: What about the “Norepinephrine, ΔWeek 12 Mean ± SEM” value [1] of the same compound?
Answer: Its value is -52 ± 65 pg/mL.

Question: What about the “Norepinephrine, ΔWeek 12 Median” value [1] of the same compound?
Answer: Its value is -76 pg/mL.

Question: And the “Norepinephrine, ΔWeek 24 Median” value [1]?
Answer: The value was 232 pg/mL.

Question: What about the “Norepinephrine, ΔWeek 12 Mean ± SEM” value (Hungary (n = 33)) of the same compound?
Answer: Its value is 144 ± 89 pg/mL.

Question: What about the “Norepinephrine, ΔWeek 12 Median” value (Hungary (n = 33)) of the same compound?
Answer: Its value is 37 pg/mL.

Question: And the “Norepinephrine, ΔWeek 24 Mean ± SEM” value (Hungary (n = 33))?
Answer: Its value is 148 ± 336 pg/mL.

Question: What about the “Norepinephrine, ΔWeek 24 Median” value (Hungary (n = 33)) of the same compound?
Answer: The value was -42 pg/mL.

Question: And the “Norepinephrine, ΔWeek 12 Mean ± SEM” value (U.S. (n = 127))?
Answer: Its value is -100 ± 43 pg/mL.

Question: And the “Norepinephrine, ΔWeek 12 Median” value (U.S. (n = 127))?
Answer: Its value is -66 pg/mL.

Question: What about the “Norepinephrine, ΔWeek 24 Mean ± SEM” value (U.S. (n = 127)) of the same compound?
Answer: The value was -46 ± 40 pg/mL.

Question: What about the “Norepinephrine, ΔWeek 24 Median” value (U.S. (n = 127)) of the same compound?
Answer: The value was -46 pg/mL.

Question: What about the “Reduction in NE” value (week 12, entire cohort) of the same compound?
Answer: Its value is 57 pg/mL.
